Test results published in ChEMBL document CHEMBL1138534, “Cellular effects of reversed amidines on Trypanosoma cruzi” (Antimicrob Agents Chemother, 2007).
Calls of active or inactive are those of the source. No cut-off for these calls is given here.

How the values were obtained:
Trypanosoma cruzi [1] = test: Antitrypanosomal activity against Trypanosoma cruzi Y amastigotes assessed as swelling and electrodense mitochondria at IC50 after 24 hrs by transmission electron microscopy; format: functional, organism-based
Trypanosoma cruzi [2] = test: Antitrypanosomal activity against Trypanosoma cruzi Y bloodstream trypomastigotes assessed as parasite lysis at 3.5 uM after 24 hrs by light microscope; format: functional
Trypanosoma cruzi [3] = test: Antitrypanosomal activity against Trypanosoma cruzi Y amastigotes after 24 hrs by light microscope; format: functional, organism-based
Trypanosoma cruzi [4] = test: Antitrypanosomal activity against Trypanosoma cruzi Y bloodstream trypomastigotes assessed as parasite death at 3.5 uM after 24 hrs by light microscope; format: functional
Trypanosoma cruzi [5] = test: Antitrypanosomal activity against Trypanosoma cruzi Y bloodstream trypomastigotes after 24 hrs by light microscope; format: functional, organism-based
Trypanosoma cruzi [6] = test: Antitrypanosomal activity against Trypanosoma cruzi Y amastigotes assessed as intense vesicular profile in flageller pocket at IC50 after 24 hrs by transmission electron microscopy; format: functional, organism-based
Trypanosoma cruzi [7] = test: Antitrypanosomal activity against Trypanosoma cruzi Y bloodstream trypomastigotes assessed as reduction in mitochondrial membrane potential at IC50 after 24 hrs by flow cytometry; format: functional; parameters: scale not given: the % may be the effect or the level left
Trypanosoma cruzi [8] = test: Antitrypanosomal activity against Trypanosoma cruzi Y bloodstream trypomastigotes assessed as microtubule axoneme structure after 24 hrs by transmission electron micrograph; format: functional, organism-based
Trypanosoma cruzi [9] = test: Antitrypanosomal activity against Trypanosoma cruzi Y bloodstream trypomastigotes assessed as alteration in mitochondria-kinetoplast complex after 24 hrs by transmission electron micrograph; format: functional, organism-based
Trypanosoma cruzi [10] = test: Antitrypanosomal activity against Trypanosoma cruzi Y bloodstream trypomastigotes assessed as swelling in mitochondria and kinetoplast after 24 hrs by transmission electron micrograph; format: functional, organism-based
Trypanosoma cruzi [11] = test: Antitrypanosomal activity against Trypanosoma cruzi Y bloodstream trypomastigotes assessed as alteration in microtubule organization after 24 hrs by transmission electron micrograph; format: functional, organism-based
Trypanosoma cruzi [12] = test: Antitrypanosomal activity against Trypanosoma cruzi Y bloodstream trypomastigotes assessed as parasite death at 32 uM after 2 hrs by light microscope; format: functional
Trypanosoma cruzi [13] = test: Antitrypanosomal activity against Trypanosoma cruzi Y bloodstream trypomastigotes assessed as parasite death at 32 uM after 24 hrs by light microscope; format: functional
Trypanosoma cruzi [14] = test: Antitrypanosomal activity against Trypanosoma cruzi Y bloodstream trypomastigotes assessed as intracellular dilated membrane profile after 24 hrs by transmission electron micrograph; format: functional, organism-based
Trypanosoma cruzi [15] = test: Antitrypanosomal activity against Trypanosoma cruzi Y bloodstream trypomastigotes at 1.18 uM after 2 hrs by light microscope; format: functional
Trypanosoma cruzi [16] = test: Antitrypanosomal activity against Trypanosoma cruzi Y amastigotes assessed as disorganization of kinetoplast at IC50 after 24 hrs by transmission electron microscopy; format: functional, organism-based
Trypanosoma cruzi [17] = test: Antitrypanosomal activity against Trypanosoma cruzi Y amastigotes assessed as alteration in nuclear morphology at IC50 after 24 hrs by transmission electron microscopy; format: functional, organism-based
Trypanosoma cruzi [18] = test: Antitrypanosomal activity against Trypanosoma cruzi Y amastigotes assessed as vacuolization and loss of cytoplasm components at IC50 after 24 hrs by transmission electron microscopy; format: functional, organism-based
Trypanosoma cruzi [19] = test: Antitrypanosomal activity against Trypanosoma cruzi Y bloodstream trypomastigotes assessed as alteration in nuclear morphology after 24 hrs by transmission electron micrograph; format: functional, organism-based
Trypanosoma cruzi [20] = test: Antitrypanosomal activity against Trypanosoma cruzi Y amastigotes assessed as disorganization of subpellicular mitochondria at IC50 after 24 hrs by transmission electron microscopy; format: functional, organism-based
Trypanosoma cruzi [21] = test: Antitrypanosomal activity against Trypanosoma cruzi Y bloodstream trypomastigotes assessed as parasite death at 0.014 uM after 24 hrs by light microscope; format: functional

Compound | Activity (Trypanosoma cruzi [2]) | IC50 (Trypanosoma cruzi [3]) [µM] | Activity (Trypanosoma cruzi [4]) [%] | IC50 (Trypanosoma cruzi [5]) [µM] | Activity (Trypanosoma cruzi [6]) | Activity (Trypanosoma cruzi [7]) | Activity (Trypanosoma cruzi [8]) | Activity (Trypanosoma cruzi [10]) | further results
Cc1cc(NC(=N)c2ccccn2)ccc1-c1ccc(-c2ccc(NC(=N)c3ccccn3)cc2C)o1 | 55% | 0.24 | 95 | 0.45 | Active | 54% | – | – | Activity (Trypanosoma cruzi [1]): Active
COc1cc(NC(=N)N)ccc1-c1ccc(-c2ccc(NC(=N)N)cc2OC)o1 | – | > 10.6 | – | 19.4 | – | inactive | Active | Active | Activity (Trypanosoma cruzi [9]): Active; Activity (Trypanosoma cruzi [11]): Active; Activity (Trypanosoma cruzi [12]): 23%; Activity (Trypanosoma cruzi [13]): 84%; Activity (Trypanosoma cruzi [14]): Active
N=C(Nc1ccc(-c2cc(-c3ccccc3)c(-c3ccc(NC(=N)c4ccccn4)cc3)o2)cc1)c1ccccn1 | Active | 0.0086 | 100 | 0.09 | Active | 59% | Active | Active | Activity (Trypanosoma cruzi [15]): 55%; Activity (Trypanosoma cruzi [16]): Active; Activity (Trypanosoma cruzi [17]): Active; Activity (Trypanosoma cruzi [18]): Active; Activity (Trypanosoma cruzi [19]): Active
Cc1ccc(C(=N)Nc2ccc(-c3ccc(-c4ccc(NC(=N)c5ccc(C)cn5)cc4OC(C)C)o3)c(OC(C)C)c2)nc1 | 50% | 1.14 | 95 | 0.015 | – | 55% | – | – | Activity (Trypanosoma cruzi [20]): Active; Activity (Trypanosoma cruzi [21]): 49%
